± gives the uncertainty stated by the source.
Assay: xn = mol fraction of the nth substance listed

C=CC#N + CCOC(C)=O
viscosity [mPa·s]
Details | 298.15 K | 303.15 K | 308.15 K
101.3 kPa, x1 = 0.0974 | – | 0.3987 ± 0.0034 | –
101.3 kPa, x1 = 0.201 | – | 0.394 ± 0.0034 | –
101.3 kPa, x1 = 0.302 | – | 0.3883 ± 0.0033 | –
101.3 kPa, x1 = 0.3997 | – | 0.3824 ± 0.0033 | –
101.3 kPa, x1 = 0.4964 | – | 0.3739 ± 0.0033 | –
101.3 kPa, x1 = 0.5946 | – | 0.3654 ± 0.0032 | –
101.3 kPa, x1 = 0.6974 | – | 0.3546 ± 0.0032 | –
101.3 kPa, x1 = 0.7978 | – | 0.3413 ± 0.0031 | –
101.3 kPa, x1 = 0.9018 | – | 0.3263 ± 0.0031 | –
101.33 kPa, x1 = 0.1002 | 0.442 ± 0.013 | 0.419 ± 0.012 | 0.398 ± 0.012
101.33 kPa, x1 = 0.2025 | 0.429 ± 0.013 | 0.403 ± 0.012 | 0.383 ± 0.012
101.33 kPa, x1 = 0.3034 | 0.42 ± 0.012 | 0.397 ± 0.012 | 0.377 ± 0.011
101.33 kPa, x1 = 0.4047 | 0.408 ± 0.012 | 0.387 ± 0.012 | 0.369 ± 0.011
101.33 kPa, x1 = 0.5034 | 0.4 ± 0.012 | 0.379 ± 0.011 | 0.361 ± 0.011
101.33 kPa, x1 = 0.5994 | 0.39 ± 0.012 | 0.368 ± 0.011 | 0.352 ± 0.011
101.33 kPa, x1 = 0.7007 | 0.381 ± 0.011 | 0.364 ± 0.011 | 0.351 ± 0.011
101.33 kPa, x1 = 0.8021 | 0.369 ± 0.011 | 0.358 ± 0.011 | 0.344 ± 0.011
101.33 kPa, x1 = 0.9003 | 0.358 ± 0.011 | 0.349 ± 0.011 | 0.328 ± 0.01

Cn1ccnc1 + CCOC(C)=O
viscosity [mPa·s], 101 kPa
Details | 298.15 K | 308.15 K | 318.15 K
x1 = 0.0518 | 0.4901 ± 0.03 | 0.4509 ± 0.027 | 0.417 ± 0.025
x1 = 0.1042 | 0.5183 ± 0.031 | 0.4734 ± 0.029 | 0.4355 ± 0.026
x1 = 0.2036 | 0.5796 ± 0.035 | 0.524 ± 0.032 | 0.4789 ± 0.029
x1 = 0.3106 | 0.661 ± 0.04 | 0.5919 ± 0.036 | 0.5383 ± 0.033
x1 = 0.4006 | 0.7306 ± 0.044 | 0.6504 ± 0.039 | 0.587 ± 0.036
x1 = 0.4976 | 0.826 ± 0.05 | 0.7281 ± 0.044 | 0.6494 ± 0.039
x1 = 0.6011 | 0.9571 ± 0.058 | 0.8342 ± 0.051 | 0.7376 ± 0.045
x1 = 0.6961 | 1.09 ± 0.066 | 0.9437 ± 0.057 | 0.8289 ± 0.05
x1 = 0.8012 | 1.266 ± 0.077 | 1.082 ± 0.065 | 0.9423 ± 0.057
x1 = 0.9 | 1.468 ± 0.089 | 1.245 ± 0.075 | 1.074 ± 0.065
x1 = 0.9496 | 1.57 ± 0.095 | 1.331 ± 0.081 | 1.144 ± 0.069

C=CC#N + CN(C)C=O
303.15 K, 101.3 kPa
Details | viscosity [mPa·s]
x1 = 0.099 | 0.7313 ± 0.0095
x1 = 0.2027 | 0.6911 ± 0.009
x1 = 0.2977 | 0.6444 ± 0.0085
x1 = 0.4005 | 0.5998 ± 0.0081
x1 = 0.497 | 0.5516 ± 0.0075
x1 = 0.5957 | 0.5028 ± 0.007
x1 = 0.6984 | 0.4518 ± 0.0065
x1 = 0.798 | 0.4041 ± 0.0059
x1 = 0.895 | 0.3581 ± 0.0054

CCCCC(C)O (stereo unspecified) + CN(C)C=O
viscosity [mPa·s], 101 kPa
Details | x2 = 0.1088 | x2 = 0.1532 | x2 = 0.2402 | x2 = 0.3448 | x2 = 0.441 | x2 = 0.5601 | x2 = 0.6546 | x2 = 0.7434 | x2 = 0.843 | x2 = 0.9374
298.15 K | 3.26 ± 0.07 | 3.03 ± 0.07 | 2.7 ± 0.1 | 2.41 ± 0.05 | 2.17 ± 0.05 | 1.87 ± 0.04 | 1.63 ± 0.04 | 1.4 ± 0.1 | 1.17 ± 0.03 | 0.97 ± 0.02
303.15 K | 2.67 ± 0.06 | 2.49 ± 0.06 | 2.23 ± 0.05 | 1.99 ± 0.05 | 1.79 ± 0.04 | 1.56 ± 0.04 | 1.39 ± 0.03 | 1.23 ± 0.03 | 1.05 ± 0.02 | 0.87 ± 0.02
308.15 K | 2.19 ± 0.05 | 2.01 ± 0.05 | 1.8 ± 0.1 | 1.61 ± 0.04 | 1.47 ± 0.03 | 1.3 ± 0.1 | 1.18 ± 0.03 | 1.06 ± 0.02 | 0.93 ± 0.02 | 0.8 ± 0.1
313.15 K | 1.7 ± 0.1 | 1.53 ± 0.04 | 1.36 ± 0.03 | 1.23 ± 0.03 | 1.13 ± 0.03 | 1.03 ± 0.03 | 0.96 ± 0.02 | 0.89 ± 0.02 | 0.81 ± 0.02 | 0.73 ± 0.02

O=C1CCCCCO1 + CNC(C)=O
viscosity [mPa·s], 101 kPa
Details | x2 = 0.0922 | x2 = 0.2381 | x2 = 0.3459 | x2 = 0.4411 | x2 = 0.5823 | x2 = 0.6289 | x2 = 0.6641 | x2 = 0.7792 | x2 = 0.9465
303.15 K | 4.458 ± 0.29 | 3.929 ± 0.26 | 3.6 ± 0.24 | 3.366 ± 0.22 | 3.201 ± 0.21 | 3.187 ± 0.21 | 3.218 ± 0.22 | 3.308 ± 0.22 | 3.629 ± 0.24
308.15 K | 3.994 ± 0.26 | 3.609 ± 0.24 | 3.358 ± 0.22 | 3.162 ± 0.21 | 2.962 ± 0.2 | 2.921 ± 0.2 | 2.912 ± 0.2 | 2.895 ± 0.2 | 3.062 ± 0.21
313.15 K | 3.543 ± 0.24 | 3.135 ± 0.21 | 2.944 ± 0.2 | 2.76 ± 0.19 | 2.602 ± 0.18 | 2.552 ± 0.17 | 2.532 ± 0.17 | 2.527 ± 0.17 | 2.773 ± 0.19
318.15 K | 3.182 ± 0.21 | 2.761 ± 0.19 | 2.616 ± 0.18 | 2.479 ± 0.17 | 2.372 ± 0.16 | 2.33 ± 0.16 | 2.348 ± 0.16 | 2.349 ± 0.16 | 2.453 ± 0.17

CC(=O)[O-].CCCC[NH3+] + CO
101.3 kPa
Details | viscosity [mPa·s]
293.15 K, x1 = 0.7993 | 256.5 ± 15
298.15 K, x1 = 0.8988 | 312.5 ± 19

Cc1ccc(C(C)C)cc1 + CO
293.15 K, 101 kPa
Details | viscosity [mPa·s]
x2 = 0.2 | 0.799 ± 0.016
x2 = 0.4 | 0.793 ± 0.015
x2 = 0.6 | 0.793 ± 0.015
x2 = 0.7 | 0.774 ± 0.015
x2 = 0.8 | 0.732 ± 0.014
